Measured values reported in US9119881B2, “Method of synergistically enhancing the therapeutic efficacy and safety of medication through a combination therapy” (priority 2010, dated 2015).

What was measured:
[1] = system: human aorta endothelial cells (HAECs); experiment: Nitric oxide assessment in HAECs; format: cell-based; details: 15 min treatment, beginning at 0.1 uM ABA
Procedure: Confluent human aorta endothelial cells (HAECs) were serum-starved using HBSS buffer for 30 min, then stimulated with various concentration of ABA and Forskolin (1 uM) for 5 min, after removing supernatant, cells were lysed with 0.1 M HCL to measure non-acetylated cAMP using a commercially available kit (Cayman chemical) following the manufacturer's instructions. Results (pmol/mL) were obtained from four independent experiments. For nitric oxide (NO), confluent HAECs were serum-starved for 30 min by using HBSS buffer, then treated with ABA for 15 min. Supernatant was used to measure NO using an fluorescent kit.

[2] = system: retinoid X receptor (RXR); experiment: RXR luciferase reporter in transfected 3T3-L1 preadipocytes; format: cell-based; details: ABA 10 μM with 9-cis retinoic acid 10 μM
Procedure: A pCMX.L-RXR or pCMX.RAR expression plasmid and a luciferase reporter plasmid were purified using Qiagen's Maxi kit (Valencia, Calif.). 3T3-L1 preadipocytes (American Type Culture Collection, Manassas, Va.) were grown in DMEM high glucose medium (Invitrogen, Carlsbad, Calif.) containing 10% fetal bovine serum (FBS). The cells cultured in 25 cm^2 flasks were co-transfected with 0.6 ug plasmid DNA and 1 ng of pRL reporter control plasmid per well using F-2 transfection reagents (Targeting Systems, Santee, Calif.) according to the manufacturer's protocol. After 24 hours, transfected cells were split trypsin and seeded into 96-well white plates at a concentration of 20,000 cells/wells. The transfected cells were then treated with 9-cis retinoic acid (0, 10 μM; Sigma), or retinoic acid (RA, 10 μM; Sigma), with ABA (10 μM; Sigma) Transfected cells were harvested in reporter lysis reagent. Luciferase activity, normalized to pRL activity in the cell extracts was determined by using the dual luciferase reporter assay system (Promega, Madison, Wis.) in a Modulus 96-well plate reader (Turner Biosystems, Sunnyvale, Calif.). Relative luciferase activity (RLA) was calculated as a ratio of the chemiluminescence 10 seconds after the Luciferase Assay Reagent II (Promega) was added over the chemiluminescence 10 seconds after the Stop&Glo Reagent (Promega).

[3] = system: blood CCR2+CD11b+ monocytes and regulatory T cells (Tregs); experiment: Blood immune cell populations of db/db mice, flow cytometry; format: in vivo; details: whole blood
Procedure: Obese db/db mice were fed high-fat diets containing 0, 15, or 70 mg/kg diet rosiglitazone maleate (control, Ros^lo, and Ros^hi, respectively) with and without racemic ABA (100 mg/kg diet). On day 60 the percent of F4/80+CD11b+ in the stromal vascular fractions of abdominal white adipose tissue (Ab. WAT) (A) and subcutaneous WAT (B) were assessed by flow cytometry. The percent of CD11b+CCR2+ monocytes (C) and CD4+CD25+FoxP3+ Tregs (D) in blood were assessed in whole blood. The expressions of the M1 marker CCL17 (E) and peroxisome proliferator activated receptor γ (PPAR γ) (F) in Ab. WAT were calculated as a ratio to the housekeeping gene f3-actin. Data are represented as mean±standard error.
Mice (n=40) were fed one of six experimental diets: a control high-fat diet (control), a high-fat diet containing low dose rosiglitazone maleate (Ros^lo, 10 mg/kg diet), or a high-fat diet containing a high dose of rosiglitazone maleate (Ros^hi, 70 mg/kg diet), each with or without all racemic ABA (100 mg/kg, Sigma Aldrich, St. Louis, Mo.) for 60 days. […] Blood glucose levels were assessed with an ACCU-CHEK® Glucometer (Roche, Indianapolis, Ind.). An intraperitoneal glucose tolerance test (IPGTT, 1 g glucose/kg body weight) was conducted on fasted mice (12 h) for 0, 30, 90, and 180 minute time points and insulin levels were measured on day 54. […]

[4] = Systolic blood pressure in ApoE-deficient mice; format: in vivo

CC1=CC(=O)CC(C)(C)C1(O)/C=C/C(C)=C\C(=O)O (racemic) [ABA, abscisic acid]
nitric oxide production [1]: significantly increased | activity of RXR ligands [2]: synergistically enhances | blood CCR2+CD11b+ monocyte levels [3]: mitigated | percentages of blood regulatory T cells (Tregs) ([3]; independently of Ros): increased | systolic blood pressure [4]: lowers
